Laboratory results: patent US6521650B1, “Amines as pharmaceutical agents” (Pfizer, Inc., priority 1997, dated 2003)

Tests used:
DBA2 = DBA2 % Protection; format: in vivo

SMILES | melting point [°C] | DBA2 % Protection 1 Hr (DBA2) [%] | DBA2 % Protection 2 Hr (DBA2) [%]
CC(C)CC(CN)Cc1noc(=S)[nH]1.Cl (centres unmarked) | 183 to 185 | – | –
CC(C)CC(CN)Cc1noc(=S)[nH]1 (centres unmarked) | – | 0 | 0
CC(C)CC(CN)CP(=O)(O)O (centres unmarked) [PO3H2, (2-Aminomethyl-4-methyl-pentyl)-phosphonic acid] | – | 0 | 0
